{
  "source": "ChEMBL document CHEMBL1201862",
  "about": "“PubChem BioAssay data set” (2004)",
  "key": {"Insulin-degrading enzyme": {"target": "T1, Insulin-degrading enzyme (Homo sapiens, UniProt P14735)", "T1 sequence (P14735 whole entry)": "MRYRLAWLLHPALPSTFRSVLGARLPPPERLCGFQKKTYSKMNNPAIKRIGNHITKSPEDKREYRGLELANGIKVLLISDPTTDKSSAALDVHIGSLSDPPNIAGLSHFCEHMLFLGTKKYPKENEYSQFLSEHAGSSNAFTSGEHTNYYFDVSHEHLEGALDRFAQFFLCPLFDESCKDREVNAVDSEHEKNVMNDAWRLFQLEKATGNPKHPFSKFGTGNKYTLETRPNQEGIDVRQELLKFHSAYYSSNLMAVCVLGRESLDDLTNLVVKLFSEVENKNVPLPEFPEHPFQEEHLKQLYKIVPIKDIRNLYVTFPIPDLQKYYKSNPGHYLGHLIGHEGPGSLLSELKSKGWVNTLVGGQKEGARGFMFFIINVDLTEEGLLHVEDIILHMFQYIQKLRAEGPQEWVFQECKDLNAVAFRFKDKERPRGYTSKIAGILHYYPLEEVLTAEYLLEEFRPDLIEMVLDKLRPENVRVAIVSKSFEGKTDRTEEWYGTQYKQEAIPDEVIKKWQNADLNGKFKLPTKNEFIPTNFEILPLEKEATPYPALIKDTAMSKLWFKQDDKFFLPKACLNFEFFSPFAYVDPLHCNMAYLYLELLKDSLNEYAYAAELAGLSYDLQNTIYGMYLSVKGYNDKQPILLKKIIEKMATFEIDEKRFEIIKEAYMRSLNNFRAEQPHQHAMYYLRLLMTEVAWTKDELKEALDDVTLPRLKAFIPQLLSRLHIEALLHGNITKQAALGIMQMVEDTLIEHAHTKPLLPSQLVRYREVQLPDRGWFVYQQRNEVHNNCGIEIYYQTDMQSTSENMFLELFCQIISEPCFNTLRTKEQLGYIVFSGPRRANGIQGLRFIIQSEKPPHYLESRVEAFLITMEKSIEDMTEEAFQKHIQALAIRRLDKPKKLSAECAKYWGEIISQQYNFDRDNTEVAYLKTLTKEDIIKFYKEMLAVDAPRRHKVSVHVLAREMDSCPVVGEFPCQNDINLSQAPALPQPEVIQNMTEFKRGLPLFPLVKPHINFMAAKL", "assay": "Dose Response: Fluorescence polarization-based cell-based high throughput dose response assay for inhibitors of insulin-degrading enzyme (IDE). [Related pubchem assays: 434962 (Primary screen (IDE inhibitors in singlicate)), 449730 (Counterscreen (Cytotoxicity in triplicate)), 435028 (Confirmation (IDE inhibitors in triplicate)), 434984 (Summary …", "assay_type": "functional"}, "[1]": {"assay": "Counterscreen for IDE inhibitors: Luminescence-based cell-based high throughput dose response assay to identify compounds that are cytotoxic to HEK cells. [Related pubchem assays: 434962 (Primary screen (IDE inhibitors in singlicate)), 449730 (Counterscreen (Cytotoxicity in triplicate)), 435028 (Confirmation (IDE inhibitors in triplicate)) …", "assay_type": "functional", "conditions": "HEK293"}, "[2]": {"target": "T2, Long-chain-fatty-acid--AMP ligase FadD28 (Mycobacterium tuberculosis, UniProt P9WQ59)", "T2 sequence (P9WQ59 whole entry)": "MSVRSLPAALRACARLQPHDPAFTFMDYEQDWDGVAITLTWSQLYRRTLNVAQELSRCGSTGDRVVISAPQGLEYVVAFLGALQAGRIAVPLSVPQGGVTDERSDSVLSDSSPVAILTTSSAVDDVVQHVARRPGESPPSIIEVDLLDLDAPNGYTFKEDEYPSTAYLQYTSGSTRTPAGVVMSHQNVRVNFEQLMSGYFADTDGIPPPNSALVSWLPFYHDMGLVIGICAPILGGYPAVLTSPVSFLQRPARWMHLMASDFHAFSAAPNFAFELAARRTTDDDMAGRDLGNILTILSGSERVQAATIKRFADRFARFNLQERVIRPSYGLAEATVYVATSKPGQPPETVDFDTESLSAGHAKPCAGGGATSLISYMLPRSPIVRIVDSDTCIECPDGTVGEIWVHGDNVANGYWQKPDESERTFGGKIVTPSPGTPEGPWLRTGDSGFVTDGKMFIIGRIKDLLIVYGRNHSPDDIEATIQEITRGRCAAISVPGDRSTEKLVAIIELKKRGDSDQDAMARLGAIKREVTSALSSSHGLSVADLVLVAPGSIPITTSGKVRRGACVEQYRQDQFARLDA", "assay": "Fluorescence polarization aasay to screen for inhibitors that compete for the binding of FadD28 to a bisubstrate Measured in Biochemical System Using Plate Reader - 2147-01_Inhibitor_Dose_CherryPick_Activity.", "assay_type": "functional, Mycobacterium tuberculosis H37Rv"}, "[3]": {"target": "T3, Corticotropin-releasing factor receptor 2/Corticotropin-releasing factor-binding protein (Homo sapiens, UniProt P24387+Q13324)", "T3 sequence (Q13324 whole entry)": "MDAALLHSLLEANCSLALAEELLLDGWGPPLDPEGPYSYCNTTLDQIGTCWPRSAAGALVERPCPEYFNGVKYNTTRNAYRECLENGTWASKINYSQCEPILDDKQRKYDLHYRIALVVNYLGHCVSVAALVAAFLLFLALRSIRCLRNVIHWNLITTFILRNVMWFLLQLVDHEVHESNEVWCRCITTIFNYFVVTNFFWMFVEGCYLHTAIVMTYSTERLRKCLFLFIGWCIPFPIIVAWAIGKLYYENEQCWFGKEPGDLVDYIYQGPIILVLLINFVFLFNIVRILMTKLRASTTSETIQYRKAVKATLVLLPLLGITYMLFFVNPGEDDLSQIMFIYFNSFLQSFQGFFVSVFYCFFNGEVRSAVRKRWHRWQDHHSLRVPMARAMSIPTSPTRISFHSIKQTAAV", "T3 sequence (P24387 whole entry)": "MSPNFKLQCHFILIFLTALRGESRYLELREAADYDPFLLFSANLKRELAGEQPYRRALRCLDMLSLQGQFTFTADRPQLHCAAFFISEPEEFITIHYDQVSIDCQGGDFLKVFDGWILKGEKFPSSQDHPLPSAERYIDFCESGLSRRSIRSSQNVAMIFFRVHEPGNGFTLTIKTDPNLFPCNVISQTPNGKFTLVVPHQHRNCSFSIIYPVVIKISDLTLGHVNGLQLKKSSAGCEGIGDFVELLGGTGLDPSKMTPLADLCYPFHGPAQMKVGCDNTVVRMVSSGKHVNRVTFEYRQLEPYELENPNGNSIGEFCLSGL", "assay": "activators of CRF receptor 2 with binding protein – uHTS hits, confirmation (AID 602473)", "assay_type": "functional", "conditions": "read-out: EC50_Mean"}, "[4]": {"assay": "blockers of CRF-binding protein–CRF-R2 complex – cell-based, uHTS hits, 384-well, dose response (AID 651639)", "assay_type": "functional, Homo sapiens", "conditions": "read-out: IC50_Mean"}, "[5]": {"target": "T3, Corticotropin-releasing factor receptor 2/Corticotropin-releasing factor-binding protein", "assay": "Dose Response confirmation of uHTS hits for small molecule antagonists of the CRF-binding protein and CRF-R2 receptor complex.", "assay_type": "functional", "conditions": "read-out: IC50_Mean"}, "[6]": {"assay": "CCR5-tropic HIV-1 fusion blockers – cell-based, CCR5-tropic Env, dose response (AID 2279)", "assay_type": "functional"}, "[7]": {"target": "FAD-linked sulfhydryl oxidase ALR (Homo sapiens, UniProt P55789)", "sequence (P55789 whole entry)": "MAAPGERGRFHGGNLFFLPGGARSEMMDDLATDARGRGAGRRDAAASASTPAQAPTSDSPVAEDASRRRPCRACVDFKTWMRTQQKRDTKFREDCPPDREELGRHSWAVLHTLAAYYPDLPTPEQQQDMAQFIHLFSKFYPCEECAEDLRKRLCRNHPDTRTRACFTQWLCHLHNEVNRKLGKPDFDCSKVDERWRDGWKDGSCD", "assay": "ALR-catalysed DTT oxidation blockers – biochemical, H2O2 detection, luminescence, cherry-pick, dose response (AID 493248)"}, "Troponin, cardiac muscle": {"target": "Troponin, cardiac muscle (Homo sapiens, UniProt P19429+P45379+P63316)", "assay": "Fluorescence-based biochemical high throughput dose response assay for activators of the calcium sensitivity of cardiac Regulated Thin Filaments (RTF). [Related pubchem assays (depositor defined):AID493008, AID493018, AID504382, AID504383]", "assay_type": "protein-complex assay"}, "Bcl-2-related protein A1": {"target": "T4, Bcl-2-related protein A1 (Mus musculus, UniProt Q07440)", "T4 sequence (Q07440 whole entry)": "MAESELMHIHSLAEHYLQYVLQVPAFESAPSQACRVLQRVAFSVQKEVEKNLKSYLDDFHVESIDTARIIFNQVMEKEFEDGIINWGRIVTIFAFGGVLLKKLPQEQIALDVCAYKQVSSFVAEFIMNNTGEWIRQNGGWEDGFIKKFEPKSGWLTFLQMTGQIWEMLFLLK", "assay_type": "functional"}, "[8]": {"target": "T5, Ubiquitin-conjugating enzyme E2 N (Homo sapiens, UniProt P61088)", "T5 sequence (P61088 whole entry)": "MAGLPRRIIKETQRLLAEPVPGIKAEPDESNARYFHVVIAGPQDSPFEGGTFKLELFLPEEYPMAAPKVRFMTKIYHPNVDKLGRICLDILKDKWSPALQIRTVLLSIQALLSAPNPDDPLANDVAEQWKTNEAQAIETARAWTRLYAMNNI", "assay_type": "functional"}, "[9]": {"target": "T5, Ubiquitin-conjugating enzyme E2 N", "assay_type": "functional", "remark": "listed apart in the source"}, "[10]": {"target": "T6, Voltage-gated N-type calcium channel alpha-1B subunit/Amyloid beta A4 precursor protein-binding family A member 1 (Homo sapiens, UniProt Q00975+Q02410)", "T6 sequence (Q00975 whole entry)": "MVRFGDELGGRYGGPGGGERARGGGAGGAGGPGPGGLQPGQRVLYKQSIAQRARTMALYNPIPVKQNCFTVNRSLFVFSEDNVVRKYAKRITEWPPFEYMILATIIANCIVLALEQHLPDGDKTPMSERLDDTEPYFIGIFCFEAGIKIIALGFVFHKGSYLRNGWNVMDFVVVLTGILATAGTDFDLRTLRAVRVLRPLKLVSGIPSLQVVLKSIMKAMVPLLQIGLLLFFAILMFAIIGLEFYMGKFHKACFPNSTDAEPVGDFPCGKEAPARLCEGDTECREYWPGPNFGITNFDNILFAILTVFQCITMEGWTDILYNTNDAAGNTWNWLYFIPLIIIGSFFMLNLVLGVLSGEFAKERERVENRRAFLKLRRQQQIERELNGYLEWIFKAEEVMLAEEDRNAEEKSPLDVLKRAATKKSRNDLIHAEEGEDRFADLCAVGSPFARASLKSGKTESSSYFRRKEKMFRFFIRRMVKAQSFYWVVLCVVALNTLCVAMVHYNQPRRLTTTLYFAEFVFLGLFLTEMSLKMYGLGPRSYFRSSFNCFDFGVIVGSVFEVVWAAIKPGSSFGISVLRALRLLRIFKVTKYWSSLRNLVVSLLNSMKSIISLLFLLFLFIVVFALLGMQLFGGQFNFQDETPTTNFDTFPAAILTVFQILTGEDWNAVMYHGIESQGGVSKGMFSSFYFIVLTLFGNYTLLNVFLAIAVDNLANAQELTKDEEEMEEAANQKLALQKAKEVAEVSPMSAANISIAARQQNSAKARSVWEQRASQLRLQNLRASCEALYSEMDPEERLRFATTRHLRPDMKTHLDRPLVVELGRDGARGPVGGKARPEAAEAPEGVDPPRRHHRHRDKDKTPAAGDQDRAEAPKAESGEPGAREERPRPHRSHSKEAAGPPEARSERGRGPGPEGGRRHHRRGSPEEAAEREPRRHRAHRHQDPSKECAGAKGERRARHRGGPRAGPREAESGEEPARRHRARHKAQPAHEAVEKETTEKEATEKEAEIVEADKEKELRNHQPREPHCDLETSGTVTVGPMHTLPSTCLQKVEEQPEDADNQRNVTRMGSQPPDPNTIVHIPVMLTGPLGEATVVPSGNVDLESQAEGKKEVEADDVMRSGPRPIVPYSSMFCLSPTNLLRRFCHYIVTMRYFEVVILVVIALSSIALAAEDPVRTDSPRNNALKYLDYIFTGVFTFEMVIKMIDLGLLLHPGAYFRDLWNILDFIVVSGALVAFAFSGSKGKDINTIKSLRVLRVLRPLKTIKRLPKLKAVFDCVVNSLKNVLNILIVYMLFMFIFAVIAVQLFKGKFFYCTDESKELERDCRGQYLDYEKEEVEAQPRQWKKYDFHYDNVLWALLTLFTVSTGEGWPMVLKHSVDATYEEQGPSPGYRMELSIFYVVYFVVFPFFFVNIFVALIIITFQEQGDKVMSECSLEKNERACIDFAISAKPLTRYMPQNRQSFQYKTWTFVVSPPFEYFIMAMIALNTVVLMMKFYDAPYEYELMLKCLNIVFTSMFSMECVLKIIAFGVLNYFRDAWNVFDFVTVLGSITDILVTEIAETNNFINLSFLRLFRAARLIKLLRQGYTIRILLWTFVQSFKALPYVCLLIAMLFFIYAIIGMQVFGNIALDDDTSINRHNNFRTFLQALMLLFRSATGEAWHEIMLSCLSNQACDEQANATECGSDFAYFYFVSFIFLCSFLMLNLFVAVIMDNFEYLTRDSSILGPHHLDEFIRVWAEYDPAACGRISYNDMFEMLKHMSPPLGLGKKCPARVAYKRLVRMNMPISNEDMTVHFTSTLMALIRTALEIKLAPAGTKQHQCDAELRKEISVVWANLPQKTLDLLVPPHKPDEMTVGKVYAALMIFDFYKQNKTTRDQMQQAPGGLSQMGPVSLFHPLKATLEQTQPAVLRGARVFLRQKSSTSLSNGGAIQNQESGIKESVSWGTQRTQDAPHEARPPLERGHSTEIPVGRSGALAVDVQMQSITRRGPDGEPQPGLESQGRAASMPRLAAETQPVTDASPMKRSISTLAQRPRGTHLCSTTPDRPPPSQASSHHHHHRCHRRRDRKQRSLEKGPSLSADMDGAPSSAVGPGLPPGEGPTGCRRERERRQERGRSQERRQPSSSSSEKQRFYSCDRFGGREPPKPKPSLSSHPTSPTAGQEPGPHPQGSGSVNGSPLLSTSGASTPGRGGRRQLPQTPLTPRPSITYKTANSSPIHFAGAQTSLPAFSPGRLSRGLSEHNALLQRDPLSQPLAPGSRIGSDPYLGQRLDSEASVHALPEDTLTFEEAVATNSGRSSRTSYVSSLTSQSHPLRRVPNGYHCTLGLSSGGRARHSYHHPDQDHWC", "T6 sequence (Q02410 whole entry)": "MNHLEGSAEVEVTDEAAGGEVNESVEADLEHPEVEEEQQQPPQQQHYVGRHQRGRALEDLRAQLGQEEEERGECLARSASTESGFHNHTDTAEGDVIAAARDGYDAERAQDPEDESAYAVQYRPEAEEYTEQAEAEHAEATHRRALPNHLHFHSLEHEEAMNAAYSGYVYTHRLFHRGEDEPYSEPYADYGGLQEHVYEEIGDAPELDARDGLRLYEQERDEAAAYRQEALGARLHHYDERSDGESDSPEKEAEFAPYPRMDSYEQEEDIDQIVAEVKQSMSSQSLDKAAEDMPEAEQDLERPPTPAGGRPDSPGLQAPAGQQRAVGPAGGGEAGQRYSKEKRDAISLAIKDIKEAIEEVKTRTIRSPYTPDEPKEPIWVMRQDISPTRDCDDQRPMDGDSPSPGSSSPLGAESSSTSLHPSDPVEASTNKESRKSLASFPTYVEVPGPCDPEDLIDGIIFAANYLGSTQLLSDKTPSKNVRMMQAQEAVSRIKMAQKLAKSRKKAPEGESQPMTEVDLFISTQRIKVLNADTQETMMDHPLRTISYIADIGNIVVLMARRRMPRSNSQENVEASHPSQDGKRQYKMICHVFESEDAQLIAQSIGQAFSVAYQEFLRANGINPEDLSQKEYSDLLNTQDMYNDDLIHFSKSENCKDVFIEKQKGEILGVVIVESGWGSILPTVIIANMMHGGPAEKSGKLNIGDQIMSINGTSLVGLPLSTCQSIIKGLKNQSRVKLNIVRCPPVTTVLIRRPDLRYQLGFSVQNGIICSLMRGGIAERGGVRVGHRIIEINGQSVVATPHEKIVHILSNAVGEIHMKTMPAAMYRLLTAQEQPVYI", "assay_type": "protein assay"}, "[11]": {"target": "T6, Voltage-gated N-type calcium channel alpha-1B subunit/Amyloid beta A4 precursor protein-binding family A member 1", "assay_type": "protein assay", "remark": "listed apart in the source"}, "[12]": {"target": "T6, Voltage-gated N-type calcium channel alpha-1B subunit/Amyloid beta A4 precursor protein-binding family A member 1", "assay": "disruptors of Mint-PDZ/N-type channel peptide interaction – biochemical, HTRF, set 2, SAR follow-up (AID 434980)", "assay_type": "functional"}, "[13]": {"target": "T6, Voltage-gated N-type calcium channel alpha-1B subunit/Amyloid beta A4 precursor protein-binding family A member 1", "assay": "disruptors of Mint-PDZ/N-type channel peptide interaction – biochemical, HTRF, SAR follow-up (AID 2489)", "assay_type": "functional"}},
  "note": "Activity calls are given as the source filed them.",
  "data": [
    {"smiles": "COc1ccccc1N1CCN(C(=O)c2cc(N3C(=O)C4C5CCC(C5)C4C3=O)ccc2Cl)CC1", "note": "(stereo not drawn)", "values": [
      {"measurement": "IC50", "setting": "Insulin-degrading enzyme", "value": "> 55.9 µM (not active)"},
      {"measurement": "IC50", "setting": "[1]", "value": "27.8 µM (not active)"}
    ]},
    {"smiles": "O=C(O)c1ccccc1NC(=O)c1ccccc1Nc1ccccc1", "values": [
      {"measurement": "AC50", "setting": "[2]", "value": "> 100 µM (inactive)"},
      {"measurement": "EC50", "setting": "[3]", "value": "> 53 µM (inactive)"},
      {"measurement": "IC50", "setting": "[4]", "value": "> 20 µM (inactive)"},
      {"measurement": "IC50", "setting": "[5]", "value": "5.46 µM (active)"},
      {"measurement": "IC50", "setting": "[6]", "value": "> 50 µM (active)"},
      {"measurement": "AC50", "setting": "[7]", "value": "9.47 µM (active)"}
    ]},
    {"smiles": "CCn1cc(C(=O)NCCC(=O)NCCO)c(=O)c2cc3c(cc21)OCO3", "values": [
      {"measurement": "EC50", "setting": "Troponin, cardiac muscle", "value": "> 71.4 µM (inactive)"}
    ]},
    {"smiles": "Cc1[nH]c(=S)c(C#N)c(-c2ccccc2)c1C(=O)Nc1ccccc1", "values": [
      {"measurement": "IC50", "setting": "Bcl-2-related protein A1", "value": "> 20 µM (inactive)"},
      {"measurement": "IC50", "setting": "[8]", "value": "13.9 µM (active)"},
      {"measurement": "IC50", "setting": "[9]", "value": "> 20 µM (inactive)"}
    ]},
    {"smiles": "Cc1ccc(/C=C2\\SC(=S)N(CCC(=O)NNC(=O)c3cccc(O)c3)C2=O)cc1", "values": [
      {"measurement": "IC50", "setting": "[10]", "value": "> 50 µM (inactive)"},
      {"measurement": "IC50", "setting": "[11]", "value": "16 µM (active)"}
    ]},
    {"smiles": "Cc1ccc(Nc2cnn(C34CC5CC(CC(CC(=O)O)(C5)C3)C4)c(=O)c2Cl)cc1C", "values": [
      {"measurement": "IC50", "setting": "Insulin-degrading enzyme", "value": "18.8 µM (not active)"},
      {"measurement": "IC50", "setting": "[1]", "value": "> 55.7 µM (not active)"}
    ]},
    {"smiles": "CC(=O)Oc1ccc(N2C(=O)C3C4C=CC(CC4)C3C2=O)cc1", "note": "(stereo not drawn)", "values": [
      {"measurement": "IC50", "setting": "[12]", "value": "> 56.8 µM (inactive)"},
      {"measurement": "IC50", "setting": "[13]", "value": "> 56.8 µM (inactive)"}
    ]}
  ]
}
